Measurements taken from ChEMBL document CHEMBL5532706, “Passifetilactones A-E, Fatty Acid Lactones from the Fruit and Flowers of Passiflora foetida with Cytotoxic Activity” (J Nat Prod, 2024).
Calls of active or inactive are those of the source. No cut-off for these calls is given here.

Tests used:
[1] = tested on: HeLa; experiment: Cytotoxicity against human HeLa cells assessed as inhibition of cell growth incubated for 72 hrs by MTT assay; format: functional, cell-based
[2] = tested on: A549; experiment: Cytotoxicity against human A549 cells assessed as inhibition of cell growth incubated for 72 hrs by MTT assay; format: functional, cell-based; details: A549, 72 h
[3] = tested on: PC-3; experiment: Cytotoxicity against human PC-3 cells assessed as inhibition of cell growth incubated for 72 hrs by MTT assay; format: functional, cell-based; details: PC-3, 72 h
[4] = Cytotoxicity against African green monkey Vero cells assessed as inhibition of cell growth incubated for 72 hrs by MTT assay; format: toxicity, cell-based; details: African green monkey (Chlorocebus sabaeus)
[5] = Cytotoxicity against human MMNK-1 cells assessed as inhibition of cell growth incubated for 48 hrs by MTT assay; format: toxicity, cell-based; details: for IC50 at 48 h: MMNK-1 cells
[6] = tested on: KKU-M055; experiment: Cytotoxicity against human KKUM055 cells assessed as inhibition of cell growth incubated for 48 hrs by MTT assay; format: functional, cell-based; details: for IC50: KKU-M055, 48 h
[7] = tested on: KKUM213; experiment: Cytotoxicity against human KKUM213 cells assessed as inhibition of cell growth incubated for 48 hrs by MTT assay; format: functional, cell-based; details: KKU-213A
[8] = tested on: KKU-M055; experiment: Induction of apoptosis in human KKUM055 cells assessed as total apoptotic cells at 2 ug/ml incubated for 48 hrs by Annexin V-FITC/PI staining based flow cytometry analysis (reference value: 22.11%); format: functional; details: dose 2 µg/ml
[9] = tested on: KKU-M055; experiment: Induction of apoptosis in human KKUM055 cells assessed as total apoptotic cells at 7 ug/ml incubated for 48 hrs by Annexin V-FITC/PI staining based flow cytometry analysis (reference value: 22.11%); format: functional; details: dose 7 µg/ml
[10] = tested on: KKUM213; experiment: Induction of apoptosis in human KKUM213 cells assessed as total apoptotic cells at 2 ug/ml incubated for 48 hrs by Annexin V-FITC/PI staining based flow cytometry analysis (reference value: 17.61%); format: functional, KKU-213A; details: dose 2 µg/ml
[11] = tested on: KKUM213; experiment: Induction of apoptosis in human KKUM213 cells assessed as total apoptotic cells at 7 ug/ml incubated for 48 hrs by Annexin V-FITC/PI staining based flow cytometry analysis (reference value: 17.61%); format: functional, KKU-213A; details: dose 7 µg/ml
[12] = tested on: KKU-M055; experiment: Induction of apoptosis in human KKUM055 cells assessed as total apoptotic cells at 2 ug/ml incubated for 48 hrs by Annexin V-FITC/PI staining based flow cytometry analysis (reference value: 16.44%); format: functional; details: dose 2 µg/ml
[13] = tested on: KKU-M055; experiment: Induction of apoptosis in human KKUM055 cells assessed as total apoptotic cells at 7 ug/ml incubated for 48 hrs by Annexin V-FITC/PI staining based flow cytometry analysis (reference value: 16.44%); format: functional; details: dose 7 µg/ml
[14] = tested on: KKUM213; experiment: Induction of apoptosis in human KKUM213 cells assessed as total apoptotic cells at 2 ug/ml incubated for 48 hrs by Annexin V-FITC/PI staining based flow cytometry analysis (reference value: 18.14%); format: functional, KKU-213A; details: dose 2 µg/ml
[15] = tested on: KKUM213; experiment: Induction of apoptosis in human KKUM213 cells assessed as total apoptotic cells at 7 ug/ml incubated for 48 hrs by Annexin V-FITC/PI staining based flow cytometry analysis (reference value: 18.14%); format: functional, KKU-213A; details: dose 7 µg/ml

Structure (SMILES)	IC50 [1]	IC50 [2]	IC50 [3]	IC50 at 72 h [4]	IC50 at 48 h [5]	IC50 [6]	IC50 [7]	Activity [8]	Activity [9]	Activity [10]	Activity [11]	Activity [12]	Activity [13]	Activity [14]	Activity [15]	Activity ([5]; mmnk-1, 48 h, time 48 hrs)	Activity [6]	Activity [7]
CCCCCC/C=C\CCCCCCC[C@H]1CC=CC(=O)O1	11.2 µM	16.9 µM	23.6 µM	21.2 µM	52.9 µM	31 µM	22.5 µM											
CCCCCCCCCCCCCCC[C@H]1CC=CC(=O)O1	12.2 µM	12.2 µM	12.2 µM	12.2 µM	39.3 µM	19.8 µM	18.2 µM	21.29%	43.4%	20.64%	19.95%							
CCCCCCCCCCCCCCC[C@@H]1OC(=O)C=C[C@@H]1O	3.7 µM	3.7 µM	3.7 µM	3.7 µM	57.4 µM	25.9 µM	17 µM					59%	86%	28.97%	69.22%			
CCCCCCCCCCCCCCC[C@@H](O)[C@@H]1C=CC(=O)O1						26.3 µM	51.7 µM									Non-Toxic		
CCCCCCCCCCCCCCC[C@@H]1C[C@@H]2C[C@@H](CC(=O)O2)O1	39.1 µM	39.1 µM	39.1 µM	39.1 µM													inactive	inactive
